# Test results taken from paper PMC12410356 (International Journal for Parasitology: Drugs and Drug …, 2025).
# Read-outs that look alike come from different tables or passages of the source.
# Columns and labels:
# [1] = test system: E. multilocularis metacestode vesicles; assay: Metacestode vesicle viability assay (ATP, CellTiter-Glo); format: cell-based, Echinococcus multilocularis; settings: Echinococcus multilocularis, 288 h; for viability at 10 µM: 12 days, read-out: Viability d12 (relative viability)
# Method: Viability was assessed after 12 days using the same metacestode vesicles as for the PGI release assay. Triton X-100 was added to each well to a final concentration of 0.1 %. Subsequently the metacestode vesicles were broken mechanically and 50 μL of the supernatant was mixed with 50 μL of CellTiter-Glo® buffer (Promega, Dübendorf, Switzerland). Measurements were performed on a HIDEX Sense microplate reader.
# mice = test system: mice; set-up: method as in Almahariq et al., 2013; Maeda et al., 2020; settings: ref Almahariq et al., 2013, Maeda et al., 2020, cited from earlier work
# [2] = test system: Reuber rat hepatoma (RH) cells; assay: Mammalian cell toxicity, resazurin assay; format: cell-based; settings: for IC50: 5 days incubation, mean ± SD
# Method: Mammalian cell toxicity on RH cells was measured as described in [Rufener et al. (2018)] with few alterations. Briefly, confluent (50′000 cells/well) and pre-confluent (5′000 cells/well) were seeded into 96-well plates in DMEM supplemented with 10 % FBS, penicillin (100 U/mL), streptomycin (100 μg/mL) and tetracycline (5 μg/mL) and incubated at 37 °C under a humid, 5 % CO2 atmosphere for 24 h and 5 h respectively. Alexidine, ESI-09 and MMV1581545 were added to final concentrations ranging from 120 to 0.49 μM (1:3 serial dilution) to each well and then cells were incubated at 37 °C under a humid, 5 % CO2 atmosphere for 5 days. To measure viability, the medium was removed, 180 μL of PBS was added to the cells and resazurin was added to each well to a final concentration of 10 mg/L. The cells were then allowed to process the resazurin at RT for 1 h. Fluorescence was measured on a HIDEX Sense microplate reader. Measurements were performed in triplicates and IC50 values were calculated in R using the three parameter Weibull type 1 model for three independent experiments ([Ritler et al., 2020]).
structure (smiles),measurement,setting,value
CC(C)(C)c1cc(C(=O)/C(C#N)=N/Nc2cccc(Cl)c2)no1 [ESI-09],viability at 10 µM,"[1]; confirmation screen, triplicates, mean",10.7%
same,viability at 10 µM,"[1]; overview screen, singlets, relative to DMSO control",7.77%
same,IC50,"[1]; 12 days incubation, mean ± SD of three independent experiments",2.09 ± 0.56 µM
same,tolerability in mice (in words),mice; daily 10 mg/kg intraperitoneal for 21 days,well-tolerated
same,tolerability in mice (in words),mice; daily 50 mg/kg oral gavage up to 26 days,well-tolerated
same,toxicity against mammalian cell line (in words),[2]; RH cells counter-screen,moderate toxicity
same,IC50,"[2]; Rattus norvegicus, 120 h, confluent, read-out: IC50 confluent RH cells",37.3 ± 0.73 µM
same,IC50,"[2]; Rattus norvegicus, 120 h, pre-confluent, read-out: IC50 pre-confluent RH cells",9.02 ± 1.3 µM
same,IC50,"[2]; pre-confluent, read-out: IC50 pre-confluent RH cells",9.03 ± 1.3 µM
